The source of these data is US6699864B2, “Substituted phenyl-piperazine derivatives, their preparation and use” (H. Lundbeck A/S, priority 1999, dated 2004).

The structures appear in SMILES notation. Where a name gives a salt, the structure may show the parent alone.

For series [1], the target named is T1, human 5-HT1A receptors (Homo sapiens, UniProt P08908).
T1 construct: expressed in transfected cells; host or cells: HeLa cells (HA7)
T1 sequence (P08908 1-422): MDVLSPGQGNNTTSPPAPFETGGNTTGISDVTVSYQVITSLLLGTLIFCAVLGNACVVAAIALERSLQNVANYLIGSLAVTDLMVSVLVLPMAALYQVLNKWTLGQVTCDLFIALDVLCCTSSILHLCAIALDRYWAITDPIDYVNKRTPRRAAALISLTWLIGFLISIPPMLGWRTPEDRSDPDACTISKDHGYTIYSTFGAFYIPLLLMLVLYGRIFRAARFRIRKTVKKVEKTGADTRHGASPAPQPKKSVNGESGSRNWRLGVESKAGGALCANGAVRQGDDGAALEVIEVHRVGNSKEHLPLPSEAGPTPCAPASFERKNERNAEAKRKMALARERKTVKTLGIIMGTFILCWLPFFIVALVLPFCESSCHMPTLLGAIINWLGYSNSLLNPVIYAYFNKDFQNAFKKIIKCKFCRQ
Nature of the series: Inhibition of 3H-5-CT binding to human 5-HT1A receptors. As to conditions: cloned human 5-HT1A receptors expressed in HeLa cells (HA7); 15 minutes at 37° C., pH 7.7. As to the method: The affinity of the compounds of the invention to 5-HT1A receptors was determined by measuring the inhibition of binding of a radioactive ligand at 5-HT1A receptors as described in the following test:
Inhibition of ^3H-5-CT Binding to Human 5-HT1A Receptors.
By this method, the inhibition by drugs of the binding of the 5-HT1A agonist ^3H-5-carboxamido tryptamine (^3H-5-CT) to cloned human 5-HT1A receptors stably expressed in transfected HeLa cells (HA7) (Fargin, A. et al, J. Biol. Chem., 1989, 264, 14848) is determined in vitro. The assay was performed as a modification of the method described by Harrington, M. A. et al, J. Pharmacol. Exp. Ther., 1994, 268, 1098. Human 5-HT1A receptors (40 μg of cell homogenate) were incubated for 15 minutes at 37° C. in 50 mM Tris buffer at pH 7.7 in the presence of ^3H-5-CT. Non-specific binding was determined by including 10 μM of metergoline. The reaction was terminated by rapid filtration through Unifilter GF/B filters on a Tomtec Cell Harvester. Filters were counted in a Packard Top Counter.

Series [2] addresses T2, 3H-5-HT uptake into whole rat brain synaptosomes (serotonin reuptake) (Rattus norvegicus, UniProt P31652).
T2 construct: whole rat brain synaptosomes; from tissue; host or cells: whole rat brain synaptosomes
Nature of the series: Inhibition of 3H-5-HT uptake into rat brain synaptosomes. It counts as biochemical. To be noted: for IC50: in vitro; for inhibition at 0.1 µM: at 100 nM. As to the method: Inhibition of ^3H-5-HT Uptake Into Rat Brain Synaptosomes
Using this method, the ability of drugs to inhibit the accumulation of ^3H-5-HT into whole rat brain synaptosomes is determined in vitro. The assay was performed as described by Hyttel, J., Psychopharmacology 1978, 60, 13.

T2 sequence (P31652 whole entry): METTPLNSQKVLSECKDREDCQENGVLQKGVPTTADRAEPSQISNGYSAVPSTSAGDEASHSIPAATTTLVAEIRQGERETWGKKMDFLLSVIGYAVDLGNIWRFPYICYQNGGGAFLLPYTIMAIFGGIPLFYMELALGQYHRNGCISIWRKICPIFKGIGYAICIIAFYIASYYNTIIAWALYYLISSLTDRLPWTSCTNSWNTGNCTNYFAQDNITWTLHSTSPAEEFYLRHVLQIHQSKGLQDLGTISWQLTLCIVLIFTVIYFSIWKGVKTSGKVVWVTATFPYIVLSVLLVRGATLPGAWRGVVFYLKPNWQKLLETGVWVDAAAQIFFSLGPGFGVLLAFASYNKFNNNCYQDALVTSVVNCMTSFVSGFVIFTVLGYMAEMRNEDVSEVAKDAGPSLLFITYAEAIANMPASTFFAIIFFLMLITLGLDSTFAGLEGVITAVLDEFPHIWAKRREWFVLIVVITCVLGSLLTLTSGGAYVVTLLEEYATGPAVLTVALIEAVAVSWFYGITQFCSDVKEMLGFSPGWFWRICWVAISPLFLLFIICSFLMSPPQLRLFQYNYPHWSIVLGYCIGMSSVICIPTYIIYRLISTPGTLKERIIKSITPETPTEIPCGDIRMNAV

Turning to `Clc1ccc2c(CCCN3CCN(c4ccccc4Oc4ccc5c(c4)OCO5)CC3)c[nH]c2c1` (as salt: hydrochloride) [Compound 2c, 1-[2-(1,3-Benzodioxolan-5-Yloxy)Phenyl]-4-[3-(6-Chloro-1H-Indol-3-Yl)Propyl]Piperazine], the melting point was 165 °C (dec.).

`COc1ccccc1Oc1ccccc1N1CCN(CCCc2c[nH]c3ccc(F)cc23)CC1` (as salt: hydrochloride) [Compound 2d, 1-[2-(2-Methoxyphenoxy)Phenyl]-4-[3-(5-Fluoro-1H-Indol-3-Yl)Propyl]Piperazine]: the melting point lay within 183 to 189 °C.

As for `c1ccc(N2CCN(CCc3c[nH]c4ccccc34)CC2)c(Oc2ccc3c(c2)OCO3)c1` (as salt: oxalate) [Compound 1b, 1-[2-(1,3-Benzodioxolan-5-yloxy)phenyl]-4-[2-(1H-indol-3-yl)ethyl]piperazine], the melting point fell in the range of 221 to 228 °C.

Regarding `c1ccc(N2CCN(CCCc3c[nH]c4ccccc34)CC2)c(Oc2ccc3c(c2)OCO3)c1` (as salt: oxalate) [Compound 2b, 1-[2-(1,3-Benzodioxolan-5-Yloxy)Phenyl]-4-[3-(1H-Indol-3-Yl)Propyl]Piperazine], the melting point lay in the range of 156 to 162 °C.

Take `c1ccc(N2CCN(CCc3c[nH]c4ccccc34)CC2)c(Oc2ccc3c(c2)OCO3)c1` [Compound 1b, 1-[2-(1,3-Benzodioxolan-5-yloxy)phenyl]-4-[2-(1H-indol-3-yl)ethyl]piperazine]: the IC50 in series [1] came to 0.0078 µM; in series [2], 0.13 µM.

As for `c1ccc(N2CCN(CCCc3c[nH]c4ccccc34)CC2)c(Oc2ccc3c(c2)OCO3)c1` [Compound 2b, 1-[2-(1,3-Benzodioxolan-5-Yloxy)Phenyl]-4-[3-(1H-Indol-3-Yl)Propyl]Piperazine], the concentration for half-maximal inhibition (IC50) in series [1] was 0.016 µM; in series [2], 0.0028 µM.

Regarding `c1ccc(N2CCN(CCCCc3c[nH]c4ccccc34)CC2)c(Oc2ccc3c(c2)OCO3)c1` [Compound 3c], the 50% inhibitory concentration (IC50) in series [1] amounted to 0.016 µM. The inhibition at 0.1 µM in series [2] turned out to be 27%.

As to `Clc1ccc2c(CCN3CCN(c4ccccc4Oc4ccc5c(c4)OCO5)CC3)c[nH]c2c1` [Compound 3e, 1-[2-(1,3-Benzodioxolan-5-yloxy)phenyl]-4-[2-(6-chloro-1H-indol-3-yl)ethyl]piperazine], the IC50 in series [1] is 0.024 µM. Further, in series [2], at 0.1 µM the inhibition was 40%.

On to `Fc1ccc2[nH]cc(CCCN3CCN(c4ccccc4Oc4cccc5c4OCCO5)CC3)c2c1` [Compound 5a, 1-[2-(1,4-Benzodioxan-5-Yloxy)Phenyl]-4-[3-(5-Fluoro-1H-Indol-3-Yl)Propyl]Piperazine], for which the IC50 is 0.019 µM in series [1] and 0.014 µM in series [2].

In turn, `c1ccc(N2CCN(CCCc3c[nH]c4ccccc34)CC2)c(Oc2cccc3c2OCCO3)c1` [Compound 5ae, 1-[2-(1,4-Benzodioxan-5-yloxy)phenyl]-4-[3-(1H-indol-3-yl)propyl]piperazine] yielded an IC50 in series [1] of 0.026 µM. This molecule showed an inhibition at 0.1 µM in series [2] of 42%.

As to `Fc1ccc2[nH]cc(CCCN3CCN(c4ccccc4Oc4cccc(N5CCOCC5)c4)CC3)c2c1` [Compound 5ag, 1-{2-[3-(Morpholin-4-yl)phenoxy]phenyl}-4-[3-(5-fluoro-1H-indol-3-yl)propyl]piperazine], the IC50 in series [1] was found to be 0.026 µM; in series [2], 0.023 µM.

`CCOc1cccc(Oc2ccccc2N2CCN(CCCc3c[nH]c4ccc(C)cc34)CC2)c1` [Compound 5ai, 1-[2-(3-Ethoxyphenoxy)phenyl]-4-[3-(5-methyl-1H-indol-3-yl)propyl]piperazine] came in with a half-inhibitory concentration (IC50) in series [1] of 0.028 µM. This molecule also showed an inhibition at 0.1 µM in series [2] of 34%.

For the molecule `c1ccc(Oc2ccccc2N2CCN(CCCc3c[nH]c4ccccc34)CC2)cc1` [Compound 5e, 1-(2-Phenoxyphenyl)-4-[3-(1H-indol-3-yl)propyl]piperazine], the figures for the IC50 in series [1] and in series [2] were 0.01 µM and 0.013 µM, respectively.

In the case of `Fc1ccc2[nH]cc(CCCN3CCN(c4ccccc4Oc4ccccc4)CC3)c2c1` [Compound 5f, 1-(2-Phenoxyphenyl)-4-[3-(5-fluoro-1H-indol-3-yl)propyl]piperazine], the IC50 is 0.01 µM in series [1] and 0.0048 µM in series [2].

`COc1cccc(OC)c1Oc1ccccc1N1CCN(CCCc2c[nH]c3ccc(Br)cc23)CC1` [Compound 5h, 1-[2-(2,6-Dimethoxyphenoxy)phenyl]-4-[3-(5-bromo-1H-indol-3-yl)propyl]piperazine] showed an IC50 in series [1] of 0.01 µM. Also, the inhibition at 0.1 µM in series [2] is 55%.

In series [1], `Cc1ccc2[nH]cc(CCCN3CCN(c4ccccc4Oc4cccc(N(C)C)c4)CC3)c2c1` [Compound 5i, 1-(2-[3-(Dimethylamino)phenoxy]phenyl]-4-[3-(5-methyl-1H-indol-3-yl)propyl]piperazine] displayed a concentration for half-maximal inhibition (IC50) of 0.01 µM. This molecule returned an inhibition at 0.1 µM in series [2] of 46%.

Consider `COc1ccccc1Oc1ccccc1N1CCN(CCCc2c[nH]c3ccc(F)cc23)CC1` [Compound 5l, 1-[2-(2-Methoxyphenoxy)phenyl]-4-[3-(5-fluoro-1H-indol-3-yl)propyl]piperazine], for which the IC50 in series [1] was 0.013 µM; in series [2], 0.0047 µM.

`COc1ccccc1Oc1ccccc1N1CCN(CCCc2c[nH]c3c(F)cc(F)cc23)CC1` [Compound 5x, 1-[2-(2-Methoxyphenoxy)phenyl]-4-[3-(5,7-difluoro-1H-indol-3-yl)propyl]piperazine]: the values for the IC50 in series [1] and in series [2] were 0.018 µM and 0.033 µM, respectively.
